Experimental data as given in patent EP0233461B2, “4,5,6-Substituted-2-pyrimidinamines” (AMERICAN CYANAMID COMPANY, priority 1986, dated 1987).
Counter-ions that a name gives are not always drawn. Like-named read-outs stand apart in the source and are kept apart here.

System: human basophils
Assay: Inhibition of histamine release from immunologically stimulated human basophils
Format: cell-based
Settings: concentration causing 50% inhibition of histamine release, by linear regression, active if IC50 ≦ 48 µM
Method: The blood is allowed to sediment at room temperature in two 50 ml polycarbonate centrifuge tubes until a sharp interface develops between the red cells and plasma (60-90 minutes). The plasma (top) layer from each tube is withdrawn by pipet and transferred to respective 50 ml polycarbonate tubes. The plasma is centrifuged for 8 minutes at 110X G at 4°C. The supernatant is carefully poured off as completely as possible and the cell button is resuspended in 2-3 ml of Tris-A buffer using a siliconized Pasteur pipet. The resuspension is accomplished by drawing the liquid gently in an out of the pipet, with the tip below the liquid until an even suspension of cells is obtained. Sufficient Tris-A buffer is then added to bring the volume in the tube to about 45 ml and the tube is centrifuged at 110X G for 8 minutes at 4°C. The supernatant is poured off and the cell button is resuspended and centrifuged as described above. The supernatant is poured off and the cell button is suspended in 2-3 ml of Tris-ACM buffer to make the final volume sufficient to allow addition to the reaction tubes. Reaction tubes containing anti-IgE or antigens, either alone or with test compound in a total volume of 0.2 ml are prepared and placed in a 37°C bath. The cells are warmed to 37°C and frequently swirled to ensure an even suspension, while 1.0 ml aliquots are added to each reaction tube. The tubes are then incubated for 60 minutes at 37°C, vortexing the tubes gently every 15 minutes to keep the cells evenly suspended. When the reaction is complete, the tubes are centrifuged at 4°C for 10 minutes at 1500 rpm to sediment the cells. […] Blanks and totals are included in each test. The blanks have cells and all reagents except antigen or anti-IgE. The totals contain 0.24 ml of 8% perchloric acid, one ml of cells and 0.2 ml of buffer. All samples are then centrifuged to remove the precipitate protein. […] The automated system consists of the following Technicon Autoanalyzer II components Sampler IV, Dual-Speed Proportioning Pump III, Fluoronephelometer with a narrow pass primary filter 7-60 and a secondary filter 3-74, Recorder, and Digital Printer. The manifold used is the one described by Siraganian vide supra, with the following modifications: the dialyzer is omitted; all pumping tubes pass through a single proportioning pump with large capacity and twice the volume of sample is taken for anaylsis. The automated chemistry consists of the following steps: Extraction from alkaline saline into butanol, back extraction into dilute hydrochloric acid by addition of heptane, reaction of histamine with o-phthaldialdehyde (OPT) at high pH and conversion of the OPT adduct to a stable fluorophore with phosphoric acid. The reaction product is then passed through the fluorometer. The full scale response is adjusted to 50 ng histamine base with a threshold sensitivity of approximately 0.5 ng. The instrument blank (wash) is substracted from the ng histamine of each sample. Then the ng histamine of each sample is divided by the mean of the three totals (cells lysed with perchloric acid) to obtain percent release. Control samples contain antigen but no test compound. Blank (or spontaneous release) samples contain neither antigen nor test compound. The mean of the blanks (three replicates) is subtracted from the percent release for controls and test compounds.

IC50 (Homo sapiens, read-out: IC50) [µM]	Structure (SMILES)	further results
1.5	Clc1cccc(Nc2nccc(-c3cccnc3)n2)c1 [N-(3-Chlorophenyl)-4-(3-pyridinyl)-2-pyrimidinamine]	
0.4	FC(F)(F)c1cc(Nc2nccc(-c3ccncc3)n2)ccc1-n1ccnc1 [N-[4-(1H-Imidazol-1-yl)-3-(trifluoromethyl)-phenyl]-4-(4-pyridinyl)-2-pyrimidinamine]	
2.3	Brc1ccc(Nc2nccc(-c3cccnc3)n2)cc1 [N-(4-Bromophenyl)-4-(3-pyridinyl)-2-pyrimidinamine]	
1.5	CN1CCN(c2ccc(Nc3nccc(-c4cccnc4)n3)cc2)CC1 [N-[4-(4-Methyl-1-piperazinyl)phenyl]-4-(3-pyridinyl)-2-pyrimidinamine]	
1	COc1ccc(Nc2nccc(-c3ccncc3)n2)cc1 [N-(4-Methoxyphenyl)-4-(4-pyridinyl)-2-pyrimidinamine]	
1.1	CCN(CC)c1ccc(Nc2nccc(-c3ccncc3)n2)cc1 [N,N-Diethyl-N'-[4-(4-pyridinyl)-2-pyrimidinyl]-1,4-benzenediamine]	
3.6	CC(=O)Nc1ccc(Nc2nccc(-c3cccnc3)n2)cc1 [N-[4-[[4-(3-Pyridinyl)-2-pyrimidin-yl]amino]phenyl]acetamide]	
< 48	COc1ccc(Nc2nccc(-c3ccco3)n2)cc1 [4-(2-Furanyl)-N-(4-methoxyphenyl)-2-pyrimidinamine]	
< 48	Fc1ccc(Nc2nccc(-c3cccnc3)n2)cc1 [N-(4-Fluorophenyl)-4-(3-pyridinyl)-2-pyrimidinamine]	
9.4	Cc1cccc(Nc2nccc(-c3ccncc3)n2)c1 [N-(3-Methylphenyl)-4-(4-pyridinyl)-2-pyrimidinamine]	
0.5	CN(C)CCOc1ccc(Nc2nccc(-c3cccnc3)n2)cc1 [N-[4-[2-(Dimethylamino)ethoxy]phenyl]-4-(3-pyridinyl)-2-pyrimidinamine]	
1.5	Cc1cccc(Nc2nccc(-c3cccnc3)n2)c1 [N-(3-Methylphenyl)-4-(3-pyridinyl)-2-pyrimidinamine]	
0.4	c1cc(Nc2nccc(-c3ccncc3)n2)cc(-n2ccnc2)c1 [N-[3-(1H-Imidazol-1-yl)phenyl]-4-(4-pyridinyl)-2-pyrimidinamine]	
9.7	CCc1cccc(Nc2nccc(-c3ccco3)n2)c1 [N-(3-Ethylphenyl)-4-(2-furanyl)-2-pyrimidinamine]	
0.1	c1cncc(-c2ccnc(Nc3cccc(-n4ccnc4)c3)n2)c1 [N-[3-(1H-Imidazol-1-yl)phenyl]-4-(3-pyridinyl)-2-pyrimidinamine]	
10.1	CCN(CC)c1ccc(Nc2nccc(-c3ccccn3)n2)cc1 [N,N-Diethyl-N'-[4-(2-pyridinyl)-2-pyrimidinyl]-1,4-benzenediamine]	
0.2	CCN(CC)CCOc1ccc(Nc2nccc(-c3cccnc3)n2)cc1 [N-[4-[2-Diethylamino)ethaxy]phenyl]-4-(3-pyridinyl)-2-pyrimidinamine]	
1.7	CCN(CC)c1ccc(Nc2nccc(-c3cccnc3)n2)cc1 [N,N-Diethyl-N'-[4-(3-pyridinyl)-2-pyrimidinyl]-1,4-benzenediamine]	
2.2	c1coc(-c2ccnc(Nc3ccc(-n4ccnc4)cc3)n2)c1 [4-(2-Furanyl)-N-[4-(1H-imidazol-1-yl)phenyl]-2-pyrimidinamine]	
3.3	Fc1cccc(Nc2nccc(-c3cccnc3)n2)c1 [N-(3-Fluorophenyl)-4-(3-pyridinyl)-2-pyrimidinamine]	
0.1	c1ccc(-c2ccnc(Nc3cccc(-n4ccnc4)c3)n2)nc1 [N-[3-(1H-Imidazol-1-yl)phenyl]-4-(2-pyridinyl)-2-pyrimidinamine]	
0.6	CN1CCN(c2ccc(Nc3nccc(-c4ccncc4)n3)cc2)CC1 [N-[4-(4-Methyl-1-piperazinyl)phenyl]-4-(4-pyridinyl)-2-pyrimidinamine]	
12.4	CCOC(=O)c1ccc(Nc2nccc(-c3cccnc3)n2)cc1 [4-[[4-(3-Pyridinyl)-2-pyrimidinyl]amino]-benzoic acid, ethyl ester]	
4.4	CN(C)c1ccc(Nc2nccc(-c3ccccn3)n2)cc1 [N,N-Dimethyl-N'-[4-(2-pyridinyl)-2-pyrimidinyl]-1,4-benzenediamine, dihydrochloride]	
1.3	CCN(CC)CCOc1cccc(Nc2nccc(-c3ccco3)n2)c1 [N-[3-[2-(Diethylamino)ethoxy]phen-yl]-4-(2-furanyl)-2-pyrimidinamine]	
12.3	c1cc(-c2ccnc(Nc3ccc(-n4ccnc4)cc3)n2)ccn1 [N-[4-(1H-Imidazol-1-yl)phenyl]-4-(4-pyridinyl)-2-pyrimidinamine]	

Second part, the molecule before the results:

Structure (SMILES)	IC50 (Homo sapiens, read-out: IC50) [µM]	further results
Fc1ccc(Nc2nccc(-c3cccnc3)n2)c(F)c1 [N-(2,4-Difluorophenyl)-4-(3-pyridinyl)-2-pyrimidinamine]	< 48	
CCN(CC)CCOc1cccc(Nc2nccc(-c3cccs3)n2)c1 [N-[3-[2-(Diethylamino)ethoxy]phen-yl]-4-(2-thienyl)-2-pyrimidinamine]	0.6	
CN(C)c1cccc(Nc2nccc(-c3ccccn3)n2)c1 [N,N-Dimethyl-N'-[4-(2-pyridinyl)-2-pyrimidinyl]-1,3-benzenediamine]	0.5	
c1ccc(Nc2nccc(-c3cccnc3)n2)cc1 [N-Phenyl-4-(3-pyridinyl)-2-pyrimidinamine, phosphate]		IC50 (phosphate, read-out: IC50): 2.7 µM
c1ccc(Nc2nccc(-c3ccncc3)n2)cc1 [N-Phenyl-4-(4-pyridinyl)-2-pyrimidinamine, dihydrochloride]		IC50 (dihydrochloride, read-out: IC50): 3 µM
Cc1cnc(Nc2ccccc2)nc1-c1ccco1 [4-(2-Furanyl)-5-methyl-N-phenyl-2-pyrimidinamine]	17.7	
CN(C)c1cccc(Nc2nccc(-c3cccnc3)n2)c1 [N,N-Dimethyl-N'-[4-(3-pyridinyl)-2-pyrimidinyl]-1,3-benzenediamine]	1.7	
c1ccc(Nc2nccc(-c3c[nH]c4ccccc34)n2)cc1 [4-(1H-Indol-3-yl)-N-phenyl-2-pyrimidinamine]	3	
c1ccc(Nc2nccc(-c3cccnc3)n2)cc1 [N-Phenyl-4-(3-pyridinyl)-2-pyrimidinamine, sulfate]		IC50 (Homo sapiens): 3 µM
CN(C)c1cccc(Nc2nccc(-c3cccs3)n2)c1 [N,N-Dimethyl-N'-[4-(2-thienyl)-2-pyrimidinyl]-1,3-benzenediamine]	2.4	
Fc1cccc(F)c1Nc1nccc(-c2cccnc2)n1 [N-(2,6-Difluorophenyl)-4-(3-pyridinyl)-2-pyrimidinamine]	22	
Cc1cc(C)cc(Nc2nccc(-c3ccccn3)n2)c1 [N-(3,5-Dimethylphenyl)-4-(2-pyridinyl)-2-pyrimidinamine, phosphate]		IC50 (phosphate, read-out: IC50): 0.3 µM
c1ccc(Nc2nccc(-c3ccncc3)n2)cc1 [N-Phenyl-4-(4-pyridinyl)-2-pyrimidinamine, (Z)-2-butenedioat] [N-Phenyl-4-(4-pyridinyl)-2-pyrimidinamine, (Z)-2-butenedioate (1:1)]		IC50 (read-out: IC50): 1 µM
CCc1cccc(Nc2nccc(-c3ccsc3)n2)c1 [N-(3-Ethylphenyl)-4-(3-thienyl)-2-pyrimidinamine]	1.1	
CCOC(=O)c1cccc(Nc2nccc(-c3ccccn3)n2)c1 [3-[[4-(2-Pyridinyl)-2-pyrimidinyl]amino]benzoic acid, ethyl ester]	3	
FC(F)(F)c1cccc(Nc2nccc(-c3ccncc3)n2)c1 [4-(4-Pyridinyl)-N-[3-(trifluoro-methyl)phenyl]-2-pyrimidinamine]	32	
c1ccc(Nc2nccc(-c3cccnc3)n2)cc1 [N-Phenyl-4-(3-pyridinyl)-2-pyrimidinamine]		IC50 (read-out: IC50): 0.9 µM
Cc1cc(-c2ccnc(Nc3ccc(N(C)C)cc3)n2)c(C)o1 [N'-[4-(2,5-Dimethyl-3-furanyl)-2-pyrimidinyl]-N,N-dimethyl-1,4-benzenediamine]	4.9	
CCc1cccc(Nc2nccc(-c3cccnc3)n2)c1 [N-(3-Ethylphenyl)-4-(3-pyridinyl)-2-pyrimidinamine]	1.7	
